In the NIST ThermoML archive (doi:10.1016/j.jct.2018.12.014):

Experiments:
[1] = refractive index (Na D-line) (dimensionless); wn = mass fraction of the nth substance listed; settings: 101 kPa, Liquid, Standard Abbe refractometry, w2 = 0
[2] = wn = mass fraction of the nth substance listed; settings: 101 kPa, Liquid, Vibrating tube method, w2 = 0
[3] = refractive index (Na D-line) (dimensionless); settings: 101 kPa, Liquid, Standard Abbe refractometry
[4] = 101 kPa, Liquid, Vibrating tube method

CN(CCO)CCO [N-methyldiethanolamine] + C[P+](c1ccccc1)(c1ccccc1)c1ccccc1.[Br-]
Settings | mass density, [2] [kg/m3] | refractive index, [1]
293.15 K | 1040.31 | 1.46942
298.15 K | 1036.42 | 1.46732
303.15 K | 1032.55 | 1.46498
308.15 K | 1028.7 | 1.46285
313.15 K | 1025.14 | 1.46099
318.15 K | 1021.34 | 1.45879
323.15 K | 1017.55 | 1.4568
328.15 K | 1013.89 | 1.45461
333.15 K | 1010.07 | 1.45252
338.15 K | 1006.37 | 1.45042
343.15 K | 1002.33 | 1.44855
348.15 K | 998.62 | –
353.15 K | 995.05 | –

CN(CCO)CCO [N-methyldiethanolamine]
Settings | mass density, [4] [kg/m3] | refractive index, [3]
293.15 K | 1040.31 | 1.46942
298.15 K | 1036.42 | 1.46732
303.15 K | 1032.55 | 1.46498
308.15 K | 1028.7 | 1.46285
313.15 K | 1025.14 | 1.46099
318.15 K | 1021.34 | 1.45879
323.15 K | 1017.55 | 1.4568
328.15 K | 1013.89 | 1.45461
333.15 K | 1010.07 | 1.45252
338.15 K | 1006.37 | 1.45042
343.15 K | 1002.33 | 1.44855
348.15 K | 998.62 | –
353.15 K | 995.05 | –
